Entries after “also recorded” stand apart in the source; their conditions may differ.
Key:
Format in all cases: cell-based
C2C12 myoblasts [1] = experiment: Compaction and snapping of collagen-based 3D skeletal muscle strips
Experimental: C2C12 myoblasts were transfected with pAAV-Cag-Chr2-GFP-2A-Puro with Lipofectamine 2000 (Invitrogen, Carlsbad, Calif.) and grown under puromycin (2.5 μg/mL) selection for 2 weeks. Before cell seeding, bio-bots were positioned beam-down in polymerized holders in a 35-mm cell culture dish and aspirated of excess liquid. A liquid suspension of C2C12 skeletal muscle myoblasts and ECM proteins was added around the pillars of the bio-bot and polymerized via gelation of the matrix proteins. Embedded cells exerted traction forces on the fibrous proteins via integrin attachments to compact the matrix into a muscle strip over time, and the capped pillars acted as a physical anchor for the muscle strip to mimic the in vivo musculoskeletal arrangement in which force transmission occurs from a contracting muscle to bone through a connecting tendon. The ECM was a mixture of i) type I collagen or fibrin and ii) Matrigel™, a composition of laminin, entactin, and type IV collagen. Collagen and fibrin were chosen because naturally-derived hydrogels undergo macro-scale compaction when mixed with cells, leading to a substantially higher cell density and unidirectional cell alignment between the posts. For collagen strips, a cooled suspension of liquid type I collagen from rat tail (0.8, 1.4, or 2.0 mg/mL, BD Biosciences) was mixed with equal parts ice-cold growth medium and neutralized with 0.01 N NaOH. Pelleted cells (1.0-10.0×10^6 cells/mL) were resuspended in ice-cold growth medium and mixed with Matrigel™ (30% v/v, BD Biosciences). Liquid neutralized type I collagen was mixed thoroughly with cells (C2C12 myoblasts (ATCC)) and Matrigel™, and the mixtures were added to each holder. For fibrin muscle strips, an ice-cold cell-matrix solution of Matrigel™ (30% of total cell-matrix volume), fibrinogen (4 mg/mL, Sigma-Aldrich), thrombin from bovine plasma (0.5 U/mg fibrinogen, Sigma-Aldrich), and C2C12s suspended in GM at a concentration of 5×10^6 cells/mL were added to each holder. The post/beam assemblies were then incubated at 37° C. to induce collagen/fibrin polymerization, and growth medium was added to each assembly upon gelation. Time-lapsed compaction was captured with a stereomicroscope (MZ FL III, Leica).
To confirm that gel compaction was caused by traction forces from the cells, muscle strips were treated with 50 μg/mL blebbistatin (FIG. 27A). Blebbistatin blocks myosin II activity in the cells, which prevents inward translation of the traction forces. […] The muscle strips treated with IGF-1 (50 ng/mL) compacted rapidly but snapped near the posts within 24 h (FIG. 27C). Thus, the formation of muscle strips was cell-induced through passive tension around the two posts. […]

C2C12 muscle strips [2] = experiment: Lifetime of fibrin muscle strip bio-bots (days until fracture)
Experimental: Similarly, the lifetime of fibrin muscle strip bio-bots (i.e. days until fracture of the muscle strip) was affected by the presence or absence of 50 ng/mL IGF-1 and/or 1 mg/mL aminocaproic acid. There was a significant increase in the fibrin muscle strip lifetime with the addition of 1 mg/mL aminocaproic acid (25±1.15 days) compared to the control of 10% HS (8.75±7.63).

C2C12 muscle strips [3] = experiment: Electrically paced actuation of fibrin-based muscle strips
Experimental: To externally control muscle contraction and bio-bot locomotion, a custom-designed setup (Bajaj et al., 2011, Integr Biol (Camb) 3(9):897-909) was used to stimulate reproducible contraction of excitable cells within the muscle strip with a bipolar electrical pulse train (FIGS. 30A and 30B). The output from a waveform generator was amplified through an AD797 inverting amplifier. A capacitor C was added in series to minimize electrolysis of the media by converting the square pulse to a biphasic pulse; the system was then treated as an RC circuit (FIG. 30B). A 35-mm culture dish was modified to allow Pt electrodes of diameter 0.762 mm to pass through the lid of the dish. The average resistance of the electrical stimulation medium (DMEM without serum) was calculated by measuring the time constant τ from the oscilloscope and dividing by C for each volume at 23° C. and 37° C. The conductivity of the medium was measured using a pH/Conductivity meter (Orion 4-Star, Thermo Scientific), at 23° C. and 37° C. During stimulation, the bio-bot was placed in 4 mL of warm electrical stimulation medium between the positive and ground electrodes, and a current was applied perpendicular to the long axis, with stimulation frequencies up to 10 Hz and never exceeding more than half of the sampling frequency, per the Nyquist criterion. Bio-bots were stimulated with bipolar electrical pulses of 20 V amplitude (21.6 V/cm field strength) and 50 ms pulse width. Simultaneous imaging was achieved by positioning the dish on the stage of a stereoscope. Top-view movies were acquired with a stereomicroscope with a digital microscope camera at 9.2 fps. Side-view movies were acquired using a camcorder (Handycam DCR-SR65, Sony) at 30 fps. Electrodes were sterilized in 70% ethanol and rinsed with PBS between experiments.
Twitch contractions were observed below 8-10 Hz and tetanus above this upper frequency limit.
A Kelvin-Voigt viscoelasticity model that correlated the observed cyclic displacement to the contractile force was used to extract the active tension generated by IGF-1 supplemented muscle strips in response to electrical stimulation. The active stress generated by the muscle strip was computed as a function of the strain ε(t) and strain rate dε(t)/dt observed in the hydrogel beam with viscosity η. The time-varying displacement data was converted into time-varying strain, and the following equation was used to compute the resulting active stress: […]
The range of active tension during contraction decreased with increasing stimulation frequency, from a dynamic fluctuation of 198.68 μN during 1 Hz stimulation to 109.48 μN during 4 Hz stimulation. The active tension data followed a positive force-frequency relationship in which the magnitude of the active tension exerted by the muscle increased, even while the range of pillar motion decreased.

C2C12 muscle strips [4] = experiment: Passive tension force of muscle strips from beam deflection
Description: Using Euler-Bernoulli linear bending theory, a formula was derived relating the observed hydrogel beam deflection to the muscle-generated passive tension force. Assuming negligible rotation in the beam and a small angle approximation, equating the applied moment M to tension P times the moment arm I from the muscle strip to the beam reduced the second-order differential equation to
[formula] where I is the moment of inertia of the rectangular cross-section and y is the horizontal deflection of the beam. Boundary conditions were applied by assuming zero deflection at ends of the beam (L=0) and maximum deflection δmas at the center (L/2).
[formula] Beam dimensions, moment arm, and maximum deflection were averaged from 3 measurements of each device using the Measure Tool in ImageJ (NIH). Solving for P yielded the relation:
Finite element analysis was then used to model and simulate global displacement of the beam and pillars in response to an applied force; the simulated deflection values differed 18-19% from actual measurements.
To determine an optimal matrix system for engineered muscle functionality, the passive tension forces generated by collagen- and fibrin-based cell-matrix systems were compared. In muscle strips comprising the same number of cells, a significant increase in passive tension in those containing fibrin (629.3±8.2 μN) compared to collagen (534.2±5.8 μN) was observed. Advantageously, fibrin polymerizes relatively quickly when compared to other ECM proteins, and it can undergo large deformations without breaking (Liu et al., 2006, Science 313(5787):634; Janmey et al., 2009, J R Soc Interface 6(30):1-10). […]
This significant increase in force production was likely due to a greater number of differentiated myotubes in muscle strips supplemented with IGF-1. A normalized stress in the muscle strips with IGF-1 was calculated by dividing the passive tension by the cross-sectional area of the tissue, which averaged 1.2±0.04 mm^2 (n=9). […]

C2C12 myoblasts [5] = experiment: Differentiation, viability (MTS) and proliferation in muscle strips
Experimental: After 7 days, the myoblasts were induced to differentiate by switching to high-glucose DMEM supplemented with 10% horse serum (Lonza) and 50 ng/mL insulin-like growth factor-1 (IGF-1, Sigma). A protease inhibitor, aminocaproic acid (1 mg/mL, Sigma) was added to the growth and differentiation medium to prevent degradation of the extracellular matrix proteins by the cells. Differentiated, multinucleated myotubes were distributed throughout muscle strips supplemented with IGF-1.
An MTS assay was used to evaluate cell viability over time. Muscle strips comprising […] and supplemented with IGF-1 and aminocaproic acid were incubated with MTS (Promega) and phenazine methosulfate (Sigma-Aldrich) in DMEM without phenol red for 4 h at 37° C. Absorbance of MTS formazan product formation was measured at 490 nm using a Synergy HT microplate reader (BioTek) for four different time points and normalized to day 0 (day of cell seeding). The relative absorbance of muscle strips indicated a viability of cells within the muscle strip of 85.76±10.74% and 79.71±14.78% after days 6 and 9, respectively.

With `NCCCCCC(=O)O` [aminocaproic acid, ε-aminocaproic acid] the “snapping of collagen muscle strip” value (C2C12 myoblasts [1]; 1 mg/mL in medium) was “remained intact”, the “time muscle strip remained stable” value (C2C12 myoblasts [1]; 1 mg/mL in medium) was greater than 14 days and the “snapping of collagen muscle strip” value (C2C12 myoblasts [1]; 1 mg/mL in medium, listed as EAC) was “prevented the muscle strip from snapping”. The “fibrin muscle strip lifetime (days until fracture)” value (C2C12 muscle strips [2]; 1 mg/mL) was 25 ± 1.15 days.

`Cc1ccc2c(c1)C(=O)C1(O)CCN(c3ccccc3)C1=N2` (centres unmarked) [blebbistatin] was tested, and the “compaction of muscle strip” value (C2C12 myoblasts [1]; blebbistatin in medium, 48 hours of culture) was “lack of compaction; also recorded: prevented its compaction”.

“IGF-1: insulin-like growth factor 1, a potent mitogen” was tested, and the “range of active tension during contraction” value (C2C12 muscle strips [3]; 1 Hz stimulation) was 198.68 μN, the “range of active tension during contraction” value (C2C12 muscle strips [3]; 4 Hz stimulation) was 109.48 μN and the Output (C2C12 muscle strips [3]; stimulation 1 Hz) was 1.01 ± 0.003 Contractions/s. The Output (C2C12 muscle strips [3]; stimulation 2 Hz) was 2.01 ± 0.01 Contractions/s, the Output (C2C12 muscle strips [3]; stimulation 4 Hz) was 3.95 ± 0.05 Contractions/s and the “increase in passive tension force compared to control without IGF-1” value (C2C12 muscle strips [4]; fibrin-based muscle strips) was 70.7%. The passive tension force (C2C12 muscle strips [4]; fibrin-based muscle strips supplemented with IGF-1) was 992.7±34.3 μN, the passive stress (C2C12 muscle strips [4]; muscle strips with IGF-1, tension divided by cross-sectional area) was 0.84±0.03 kPa and the “portion of the fibrin-based muscle strip occupied by cells” value (C2C12 myoblasts [5]; 50 ng/mL) was “more than doubled”. For the same compound, the “cell proliferation compared to control muscle strips” value (C2C12 myoblasts [5]; day 9) was “enhanced cell proliferation”, the “decrease in days until fracture compared to the 1 mg/mL ACA condition” value (C2C12 muscle strips [2]; 50 ng/mL) was 22.0% and the “decrease in days until fracture compared to the control” value (C2C12 muscle strips [2]; 50 ng/mL, control 10% HS) was 51.43%.
